Patent US20070078174A1 (priority 2005, published 2007)
Structures can show the parent of a compound that is named as a salt.

Experiments:
clinical [1] = conditions: human, plasma, other: sublingual and oral
Description: Two groups were randomized and there was a one week washout period between administrations. The volunteers were in the fasted state when the drugs were administered. […] The oral formulation was administered with a glass of water. […] The samples were blinded from the analysts. […]

clinical [2] = conditions: male, human, plasma
Description: The study was a randomized open label study with a four period comparative crossover study. […] The blood samples were taken at “0” hour (pre-dosing), 10 min, 20 min, 40 min, 1.0.
The study contained twelve (12) male subjects aged 18-55 years. […] However the available pharmacokinetic data from all twelve (12) subjects was included in the statistical analysis, as required by the study protocol.
The study administered the single dosages in four different forms.

[3] = cited from earlier work

## Clc1ccc2nsnc2c1NC1=NCCN1 [tizanidine, Tizanidine hydrochloride]
Clinical [1]
  half-life: 90 to 102 min
Clinical [2]
  half-life: 90 to 102 min
[3]; administered orally, extensive hepatic first pass metabolism
  absolute bioavailability: about 40%
[3]; lowered by first-pass hepatic metabolism
  bioavailability: 22-40%
[3]; reported
  terminal half life: 2.5 h
